How the values were obtained:
[1] = system: MAP/ERK signal in parental CHO cell line; assay: Western blot of MAP/ERK phosphorylation, parental CHO cell line without human EBI2; format: cell-based, Chinese hamster; settings: high concentrations
Method: Cells (E2=CHO/AEQ/Gqi5/hEBI2) were seeded at 2×10^5 cell/well in a 12 well plate (TPP #92012) and incubated at 37° C./5% CO2 overnight. The next day medium was removed and cells were starved in serum-free medium for 4 h. Subsequently compound was added for 5 min at RT before cells were lysed (70 ul, 0.5% Triton-X100, 300 mM NaCl, 50 mM Tris pH7.5, Complete™ protease inhibitor cocktail Roche #04693124001). Cell lysates were resolved by gradient SDS-PAGE (NuPage™4-12%, #NP0322Box), transferred by semi-dry blotting to nitrocellulose (Invitrogen, #LC2001) and probed with a phospho p42/44 MAPK (T202/Y204) rabbit mAb (Cell Signalling #4376S). After treatment with a secondary goat anti rabbit-HRP (Pierce #41460) antibody the blots were developed for chemiluminescence (SuperSignal West Dura™, Pierce #34075) and visualized using a BioRad GEL DOC™ imaging system.

[2] = system: EBV-infected human B cells; assay: chemotaxis trans well assay; format: cell-based; settings: 3 hr migration
Method: (§1) B cells (RS11846 or EBV-infected human B-cells) or murine bone marrow-derived dendritic cells were washed once with medium and resuspended at 1×10^6/ml. 100 μl of this suspension was added into the wells of the filter plate and gently placed into the receiver plate containing 150 μl of a given compound dilution. The final DMSO concentration was less then 0.1%. After migration for 3 hr at 37° C. in an incubator, the filter plate was carefully removed from the receiver plate and discarded. The migrated cells in the receiver plate were resuspended and transferred into round-bottom 96-well plate, centrifuged and resuspended in 100 μl PBS containing 2% FCS and 0.1% NaN3 (FACS buffer). The input cells (100 μl) were similarly processed. For the calculation of the specific migration, a fixed number of beads (10000; Invitrogen #PCB100)) in 20 μl FACS buffer was added and the suspension was analyzed by flow cytometry using a FACS instrument PAS™ (Partec). Cells were identified based on their forward scatter (FSC) and side scatter (SSC) pattern. Chemotaxis is expressed either as total cell number or as percent of input cells.
Human peripheral B lymphocytes (PBL) were prepared from peripheral blood as a cell suspension by centrifugation on Ficoll plaque. PBL were rinsed in PBS and resuspended in complete RPMI 1640 medium (10% FCS and antibiotics) at the concentration of 2×10^7/cell/ml. […]

RS11846 cells = assay: chemotaxis 96 transwell assay; format: cell-based; settings: 3 hr migration
Method: as §1

[3] = system: bone marrow-derived dendritic cells from EBI2(−/−) mice; assay: chemotaxis assay, EBI2(−/−) dendritic cells; format: cell-based, mouse
Method: as §1
(§2) In order to generate sufficient numbers of dendritic cells (DC) we isolated bone marrow from wild type and EBI2-deficient mice (Deltagen) and treated them in culture for 7-8 days with murine IL4 and murine GM-CSF. […]

[4] = system: mouse bone marrow-derived dendritic cells (wild type); assay: chemotaxis assay, wild type dendritic cells; format: cell-based
Method: as §1, §2

[5] = system: 26 GPCR binding assays, 9 GPCR functional assays, 40 kinase assays, ion channels, proteases, transporter and enzyme assays; settings: data not shown
Description: So far oxysterols have been noted to have various physiological activities namely regulate the expression of genes that participate in both sterol and fat metabolism, serve as substrates for the synthesis of bile acids, and are intermediates in the transfer of sterols from the periphery to the liver (Russell, D. W. (2000). Oxysterol biosynthetic enzymes. Biochim. Biophys. Acta 1529, 126-135). […] This included binding assays for 26 different GPCRs, functional assays of 9 different GPCRs, 40 kinase assays, as well as selected ion channels, proteases, transporter and enzyme assays.

hEBI2 = hEBI2 (Homo sapiens, UniProt P32249); assay: luminescent aequorin functional assay, hEBI2 CHO-Aeq (Gqi5) cells; format: cell-based; design: expressed in transfected cells; host or cells: CHO-K1 expressing apoaequorin (CHO-Aeq) with Gqi5; line E2
Description: The human EBI2 was inserted into the pEFIN3 vector at the EcoRI and XbaI sites in the multiple cloning site. Mouse EBI2 was cloned using RT-PCR from mouse genomic DNA and corresponded to the Genbank accession number Q3U6B2. The mouse EBI2 was inserted into the pEFIN3 vector at the EcoRI and XbaI sites in the multiple cloning site. Plasmids expressing human and mouse EBI2 were stably transfected in CHO-K1 and HEK293 cells expressing the apoaequorin (CHO-Aeq and HEK-Aeq) (Table 1). mRNA sequence integrity of EBI2 gene was checked using RT-PCR at T0 & T30 culture times in CHO cells.
hEBI2 CHO-Aeq cell lines were screened in a luminescent aequorin functional assay against proprietary libraries of natural ligands and collection of tissue extracts.
3 oxysterol and 3 vitamin D3 compounds were tested for EBI2 activation in an aequorin assay.

hEBI2, sequence (P32249 whole entry): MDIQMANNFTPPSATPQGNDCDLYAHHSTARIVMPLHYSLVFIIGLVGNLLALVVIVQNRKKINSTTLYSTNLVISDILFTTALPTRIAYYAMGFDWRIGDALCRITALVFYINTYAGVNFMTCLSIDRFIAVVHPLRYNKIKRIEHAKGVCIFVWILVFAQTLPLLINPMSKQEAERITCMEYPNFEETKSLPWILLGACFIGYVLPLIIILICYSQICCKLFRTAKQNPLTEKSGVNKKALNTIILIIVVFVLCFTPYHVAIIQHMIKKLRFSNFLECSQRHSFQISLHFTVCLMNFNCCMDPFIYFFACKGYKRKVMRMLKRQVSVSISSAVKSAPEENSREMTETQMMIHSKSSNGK

SMILES	activation of MAP/ERK signal in control cell line [1]	attraction (migration) of EBV-infected B cells [2]	attraction (migration) of RS11846 cells (RS11846 cells)	migration of DCs from EBI2(−/−) mice towards compound [3]	migration of DCs from wild type animals towards compound [4]	interaction in safety panel [5]	efficacy compared to the ATP response (hEBI2; ATP response = endogenous P2Y receptors)	activation of hEBI2 in different CHO-Aeq cell backgrounds (hEBI2; Gqi5 and Gα16 (=WTA11))	specificity and selectivity of hEBI2 activation (hEBI2; compared to WT CHO-AeqGqi5 cells and unrelated GPCRs HCR and GPR23)
C[C@H](CCCC(C)(C)O)[C@H]1CC[C@H]2[C@@H]3[C@H](O)C=C4C[C@@H](O)CC[C@]4(C)[C@H]3CC[C@]12C [7a,25DHC, cholest-5-ene-3b,7a,25-triol]	do not activate	potently attract	potently attract	do not migrate	migrate	In none of these assay did we see a significant interaction	–	–	–
C[C@H](CCCC(C)(C)O)[C@H]1CC[C@H]2[C@@H]3[C@@H](O)C=C4C[C@@H](O)CC[C@]4(C)[C@H]3CC[C@]12C [7b,25DHC, cholest-5-ene-3b,7b,25-triol]	–	–	–	–	–	–	greater than 100%	activation	specifically and selectively activates

— patent US8497075B2, “Methods of identifying a modulator that inhibits the binding between Epstein-Barr virus induced receptor 2 and cholesterol derived ligands” (Novartis AG, priority 2008, dated 2013)
